Test results taken from patent publication US20240336608A1, “IL4I1 INHIBITORS AND METHODS OF USE” (Merck Sharp & Dohme LLC, priority 2023, published 2024).

Target: T1, recombinant IL4I1 (Homo sapiens, UniProt Q96RQ9)
T1 construct: purchased R&D Systems 5684-AO-020
T1 sequence (Q96RQ9 22-567): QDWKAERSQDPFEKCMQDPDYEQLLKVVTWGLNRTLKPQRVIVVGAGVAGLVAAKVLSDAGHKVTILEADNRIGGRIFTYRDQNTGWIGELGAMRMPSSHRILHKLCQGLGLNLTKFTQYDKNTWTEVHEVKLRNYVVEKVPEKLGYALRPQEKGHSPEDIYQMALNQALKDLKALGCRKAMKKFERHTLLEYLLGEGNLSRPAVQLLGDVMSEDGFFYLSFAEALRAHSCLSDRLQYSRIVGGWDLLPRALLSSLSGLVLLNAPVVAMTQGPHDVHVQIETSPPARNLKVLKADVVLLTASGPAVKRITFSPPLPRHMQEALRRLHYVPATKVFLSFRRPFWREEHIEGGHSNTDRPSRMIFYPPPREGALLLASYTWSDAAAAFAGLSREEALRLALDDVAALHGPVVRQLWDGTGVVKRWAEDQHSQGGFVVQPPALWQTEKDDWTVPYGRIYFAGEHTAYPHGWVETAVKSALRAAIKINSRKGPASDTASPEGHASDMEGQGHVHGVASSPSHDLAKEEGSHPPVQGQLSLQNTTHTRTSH
Test: IL4I1 Enzymatic Assay (Amplex Red/HRP coupled detection of H2O2, fluorescence)
Format: biochemical
Conditions: 1 nM recombinant IL4I1; four-hour pre-incubation with compound; 1 mM each Phe, Tyr, Trp; ten-point titration
Outline: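 Recombinant IL4I1 (1 nM final) pre-incubated 4 h at ambient temperature with compound (0.5% DMSO) in 50 mM Hepes pH 7.0, 0.005% Tween20; reaction started with 1 mM each Phe/Tyr/Trp plus excess Amplex Red/HRP, run 120 min. H2O2 read as resorufin fluorescence; EC50 from 10-point four-parameter fit.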

SMILES | EC50 [µM]
O=C(NCc1nnc(-c2ccccc2)s1)c1cn([C@@H]2CC(=O)N(C3CC3)C2)nn1 [Example 182, (R)-1-(1-cyclopropyl-5-oxopyrrolidin-3-yl)-N-((5-phenyl-1,3,4-thiadiazol-2-yl)methyl)-1H-1,2,3-triazole-4-carboxamide] | 0.61
CC(C#N)n1cc(C(=O)NCc2cc(-c3ccncc3)no2)nn1 (single isomer, unassigned) [Example 286, 1-(1-cyanoethyl)-N-((3-(pyridin-4-yl)isoxazol-5-yl)methyl)-1H-1,2,3-triazole-4-carboxamide] | 0.072
Cc1ccc(-n2cc(C(=O)NCc3nnc(-c4ccccc4C)s3)nn2)c(C)n1 [Example 107, 1-(2,6-dimethylpyridin-3-yl)-N-((5-(o-tolyl)-1,3,4-thiadiazol-2-yl)methyl)-1H-1,2,3-triazole-4-carboxamide] | 0.058
COCC[C@H](C)n1cc(C(=O)NCc2nnc(-c3ccccc3)s2)nn1 [Example 66, (S)-1-(4-methoxybutan-2-yl)-N-((5-phenyl-1,3,4-thiadiazol-2-yl)methyl)-1H-1,2,3-triazole-4-carboxamide] | 0.221
O=C(NCc1nnc(-c2ccccc2)s1)c1cc(C2CC2)n[nH]1 [Example 33, 3-cyclopropyl-N-[(5-phenyl-1,3,4-thiadiazol-2-yl)methyl]-1H-pyrazole-5-carboxamide] | 0.17
Cn1cc(C(=O)NCc2nnc(-c3ccc(F)cc3)s2)nn1 [Example 219, N-{[5-(4-fluorophenyl)-1,3,4-thiadiazol-2-yl]methyl}-1-methyl-1H-1,2,3-triazole-4-carboxamide] | 0.154
O=C(NCc1nnc(-c2ccccc2)s1)c1cn(C[C@H]2CCCO2)nn1 [Example 179, (R)-N-((5-phenyl-1,3,4-thiadiazol-2-yl)methyl)-1-((tetrahydrofuran-2-yl)methyl)-1H-1,2,3-triazole-4-carboxamide] | 0.238
Cc1ccc(-n2cc(C(=O)NCc3nnc(-c4cccnc4)s3)nn2)c(C)n1 [Example 264, 1-(2,6-dimethylpyridin-3-yl)-N-((5-(pyridin-3-yl)-1,3,4-thiadiazol-2-yl)methyl)-1H-1,2,3-triazole-4-carboxamide] | 0.48
O=C(NCc1nnc(-c2ccccc2)s1)c1cn(-c2ccncc2)nn1 [Example 240, N-((5-phenyl-1,3,4-thiadiazol-2-yl)methyl)-1-(pyridin-4-yl)-1H-1,2,3-triazole-4-carboxamide] | 0.163
CC(C)(O)c1cc(C(=O)NCc2cc(-c3ccccc3)on2)on1 [Example 248, 3-(2-hydroxypropan-2-yl)-N-((5-phenylisoxazol-3-yl)methyl)isoxazole-5-carboxamide] | 0.303
Cc1cc(C(=O)NCc2nnc(-c3ccccc3)s2)no1 [Example 23, 5-methyl-N-[(5-phenyl-1,3,4-thiadiazol-2-yl)methyl]isoxazole-3-carboxamide] | 0.207
O=C(NCc1nnc(-c2ccccc2)s1)c1cc2n(n1)CCSC2 [Example 34, N-[(5-phenyl-1,3,4-thiadiazol-2-yl)methyl]-6,7-dihydro-4H-pyrazolo[5,1-c][1,4]thiazine-2-carboxamide] | 0.453
O=C(NCc1nnc(-c2ccccc2)s1)c1cn(CC2CCCCO2)nn1 (stereo not shown) [Example 83, N-((5-phenyl-1,3,4-thiadiazol-2-yl)methyl)-1-((tetrahydro-2H-pyran-2-yl)methyl)-1H-1,2,3-triazole-4-carboxamide] | 0.361
O=C(NCc1nnc(-c2ccccc2)s1)c1cn([C@H]2CCC[C@@H]2O)nn1 [Example 209, 1-((1S,2S)-2-hydroxycyclopentyl)-N-((5-phenyl-1,3,4-thiadiazol-2-yl)methyl)-1H-1,2,3-triazole-4-carboxamide] | 0.146
Cc1cc(C(=O)NCc2nnc(-c3ccccc3)s2)oc1C [Example 38, 4,5-dimethyl-N-[(5-phenyl-1,3,4-thiadiazol-2-yl)methyl]furan-2-carboxamide] | 0.89
CN(C)C(=O)CCn1cc(C(=O)NCc2nnc(-c3ccccc3)s2)nn1 [Example 193, 1-(3-(dimethylamino)-3-oxopropyl)-N-((5-phenyl-1,3,4-thiadiazol-2-yl)methyl)-1H-1,2,3-triazole-4-carboxamide] | 0.958
CN1CC(n2cc(C(=O)NCc3nnc(-c4ccccc4)s3)nn2)CC1=O (stereo not shown) [Example 183, 1-(1-methyl-5-oxopyrrolidin-3-yl)-N-((5-phenyl-1,3,4-thiadiazol-2-yl)methyl)-1H-1,2,3-triazole-4-carboxamide] | 0.139
O=C(NCc1nnc(-c2ccccc2)s1)c1cn([C@@H]2CO[C@H]3[C@@H]2OC[C@H]3O)nn1 [Example 30, 1-((3R,3aR,6R,6aR)-6-hydroxyhexahydrofuro[3,2-b]furan-3-yl)-N-((5-phenyl-1,3,4-thiadiazol-2-yl)methyl)-1H-1,2,3-triazole-4-carboxamide] | 0.13
O=C(NCc1nnc(-c2ccccc2)s1)c1cn(C2CS(=O)(=O)C2)nn1 [Example 307, 1-(1,1-dioxidothietan-3-yl)-N-((5-phenyl-1,3,4-thiadiazol-2-yl)methyl)-1H-1,2,3-triazole-4-carboxamide] | 0.073
O=C(NCc1ccc(-c2ccccc2)nn1)c1cn(C2COC2)nn1 [Example 290, 1-(oxetan-3-yl)-N-((6-phenylpyridazin-3-yl)methyl)-1H-1,2,3-triazole-4-carboxamide] | 0.209

Now those with a lower EC50, led by results:

EC50 [µM] | SMILES
0.019 | CC[C@@H](c1ccc(F)cc1)n1cc(C(=O)NCc2nnc(-c3ccccc3)s2)nn1 [Example 257, (S)-1-(1-(4-fluorophenyl)propyl)-N-((5-phenyl-1,3,4-thiadiazol-2-yl)methyl)-1H-1,2,3-triazole-4-carboxamide]
0.034 | O=C(NCc1nnc(-c2ccccc2)s1)c1cn(CC2CCCC2)nn1 [Example 78, 1-(cyclopentylmethyl)-N-((5-phenyl-1,3,4-thiadiazol-2-yl)methyl)-1H-1,2,3-triazole-4-carboxamide]
0.025 | CC(C#N)n1cc(C(=O)NCc2cc(-c3ccncc3)on2)nn1 (single isomer, unassigned) [Example 275, 1-(1-cyanoethyl)-N-((5-(pyridin-4-yl)isoxazol-3-yl)methyl)-1H-1,2,3-triazole-4-carboxamide]
0.042 | CC(C)(C)Cn1cc(C(=O)NCc2nnc(-c3ccccc3)s2)nn1 [Example 86, 1-neopentyl-N-((5-phenyl-1,3,4-thiadiazol-2-yl)methyl)-1H-1,2,3-triazole-4-carboxamide]
0.011 | O=C(NCc1nnc(-c2ccccc2)s1)c1cn(CC2COC2)nn1 [Example 157, 1-(oxetan-3-ylmethyl)-N-((5-phenyl-1,3,4-thiadiazol-2-yl)methyl)-1H-1,2,3-triazole-4-carboxamide]
0.01 | Cc1nc(C#N)ccc1-n1cc(C(=O)NCc2nnc(-c3ccccc3)s2)nn1 [Example 335, 1-(6-cyano-2-methylpyridin-3-yl)-N-((5-phenyl-1,3,4-thiadiazol-2-yl)methyl)-1H-1,2,3-triazole-4-carboxamide]
0.018 | Cn1cc(C(=O)NCc2nnc(-c3ccccc3)s2)nn1 [Example 19, 1-methyl-N-[(5-phenyl-1,3,4-thiadiazol-2-yl)methyl]triazole-4-carboxamide]
0.051 | Cc1ccc(-c2cc(C(=O)NCc3nnc(-c4ccccc4)s3)no2)c(C)n1 [Example 228, 5-(2,6-dimethylpyridin-3-yl)-N-[(5-phenyl-1,3,4-thiadiazol-2-yl)methyl]-1,2-oxazole-3-carboxamide]
0.004 | O=C(NCc1nnc(-c2ccccc2)s1)c1cn(CC(F)(F)F)nn1 [Example 60, N-((5-phenyl-1,3,4-thiadiazol-2-yl)methyl)-1-(2,2,2-trifluoroethyl)-1H-1,2,3-triazole-4-carboxamide]
0.027 | O=C(NCc1nnc(-c2ccccc2)s1)c1scc2c1OCCO2 [Example 22, N-[(5-phenyl-1,3,4-thiadiazol-2-yl)methyl]-2,3-dihydrothieno[3,4-b][1,4]dioxine-5-carboxamide]
0.003 | CC[C@H](c1ccc(F)cc1)n1cc(C(=O)NCc2nnc(-c3ccccc3)s2)nn1 [Example 256, (R)-1-(1-(4-fluorophenyl)propyl)-N-((5-phenyl-1,3,4-thiadiazol-2-yl)methyl)-1H-1,2,3-triazole-4-carboxamide]
0.006 | Cc1nc(O)ccc1-n1cc(C(=O)NCc2nnc(-c3ccccc3)s2)nn1 [Example 230, 1-(6-hydroxy-2-methylpyridin-3-yl)-N-((5-phenyl-1,3,4-thiadiazol-2-yl)methyl)-1H-1,2,3-triazole-4-carboxamide]
0.015 | O=C(NCc1nnc(-c2ccncc2)s1)c1cn(CC(F)(F)F)nn1 [Example 249, N-((5-(pyridin-4-yl)-1,3,4-thiadiazol-2-yl)methyl)-1-(2,2,2-trifluoroethyl)-1H-1,2,3-triazole-4-carboxamide]
0.04 | CCn1ccc(C(=O)NCc2nnc(-c3ccccc3)s2)c1 [Example 18, 1-ethyl-N-[(5-phenyl-1,3,4-thiadiazol-2-yl)methyl]pyrrole-3-carboxamide]
